Measurements taken from patent publication US20080009505A1, “Theanine derivatives, uses thereof and processes for the manufacture thereof” (Conopco Inc. d/b/a UNILEVER, priority 2006, published 2008).
Like-named read-outs stand apart in the source and are kept apart here.

Assay type: physicochemical
Conditions: pH 4; for Remaining: buffer
Procedure: 0.05 M citrate buffer with a pH of 4.0 at 20.3° C. was prepared. To this buffer were added 5.35 mM theanine and 2.675 mM of the theanine dimer. The resulting solution was held at 92° C. for two weeks with small samples being taken regularly for analysis with HPLC.

Remaining (0 h) [mM]	Remaining (2.5 h) [mM]	Remaining (17.5 h) [mM]	Remaining (26.3 h) [mM]	Remaining (42 h) [mM]	Remaining (50 h) [mM]	Remaining (121.3 h) [mM]	Remaining (137.3 h) [mM]	Remaining (145.8 h) [mM]	Remaining (161.6 h) [mM]	Remaining (170.2 h) [mM]	Remaining (185.8 h) [mM]	Remaining (193.3 h) [mM]	Stability compared with theanine	SMILES
5.35	4.83	2.54	1.83	0.81	0.05	0.04	0.03	0.02	0.01	0.01	0.01	0.01		CCNC(=O)CCC(N)C(=O)O (stereo not drawn) [Theanine, N-gamma-ethyl glutamine]
2.68	2.75	2.80	2.78	2.99	3.31	3.36	3.38	3.51	3.54	3.59	3.63	3.80	much more stable than theanine	CCNC(=O)CCC1NC(=O)C(CCC(=O)NCC)NC1=O (stereo not drawn) [Theanine Dimer, N-ethyl-3-[5-(2-ethylcarbamoyl-ethyl)-3,6-dioxo-piperazin-2-yl]-propionamide]
